Converted amounts (≈) assume the structure as drawn.
Assays:
Type in all cases: cell-based
[1] = tested on: Streptococcus mitis 02mitGR16I; assay: Liquid medium dilution method (MIC); conditions: 24 h incubation at 37°C, read-out: concentrations minimales inhibitrices (C.M.I.)
Procedure: (§1) Méthode des dilutions en milieu liquide
(§2) On a préparé une série de tubes dans lesquels on répartit une même quantité de milieu nutritif stérile. On distribue dans chaque tube des quantités croissantes du produit à étudier, puis chaque tube est ensemencé avec une souche bactérienne. Après incubation de vingt-quatre heures à l'étuve à 37°C, l'inhibition de la croissance est appréciée par transillumination de ce qui permet de déterminer les concentrations minimales inhibitrices (C.M.I.) exprimées en microgrammes/cm^3.

[2] = tested on: Streptococcus pyogenes groupe A 02A1UC1; assay: Liquid medium dilution method (MIC); conditions: 24 h incubation at 37°C, read-out: concentrations minimales inhibitrices (C.M.I.)
Procedure: as §1, §2

[3] = tested on: Streptococcus mitis 02mitCB1; assay: Liquid medium dilution method (MIC); conditions: 24 h incubation at 37°C, read-out: concentrations minimales inhibitrices (C.M.I.)
Procedure: as §1, §2

[4] = tested on: Streptococcus agalactiae groupe B 02B1SJ1; assay: Liquid medium dilution method (MIC); conditions: 24 h incubation at 37°C, read-out: concentrations minimales inhibitrices (C.M.I.)
Procedure: as §1, §2

[5] = tested on: Staphylococcus aureus 011UC4; assay: Liquid medium dilution method (MIC); conditions: 24 h incubation at 37°C, read-out: concentrations minimales inhibitrices (C.M.I.)
Procedure: as §1, §2

[6] = tested on: Staphylococcus epidermidis 012GO11I; assay: Liquid medium dilution method (MIC); conditions: 24 h incubation at 37°C, read-out: concentrations minimales inhibitrices (C.M.I.)
Procedure: as §1, §2

[7] = tested on: Streptococcus faecalis groupe D 02D2UC1; assay: Liquid medium dilution method (MIC); conditions: Enterococcus faecalis, 24 h incubation at 37°C, read-out: concentrations minimales inhibitrices (C.M.I.)
Procedure: as §1, §2

[8] = tested on: Streptococcus pneumoniae 030ROIi; assay: Liquid medium dilution method (MIC); conditions: 24 h incubation at 37°C, read-out: concentrations minimales inhibitrices (C.M.I.)
Procedure: as §1, §2

[9] = tested on: Streptococcus faecium groupe D 02D3HT1; assay: Liquid medium dilution method (MIC); conditions: Enterococcus faecium, 24 h incubation at 37°C, read-out: concentrations minimales inhibitrices (C.M.I.)
Procedure: as §1, §2

[10] = tested on: Streptococcus agalactiae groupe B 02B1HT1; assay: Liquid medium dilution method (MIC); conditions: 24 h incubation at 37°C, read-out: concentrations minimales inhibitrices (C.M.I.)
Procedure: as §1, §2

[11] = tested on: Streptococcus sp groupe G 02G0GR5; assay: Liquid medium dilution method (MIC); conditions: 24 h incubation at 37°C, read-out: concentrations minimales inhibitrices (C.M.I.)
Procedure: as §1, §2

[12] = tested on: Haemophilus Influenzae 351GR6; assay: Activity on gram-negative bacterial strains
[13] = tested on: Haemophilus Influenzae 351CA1; assay: Activity on gram-negative bacterial strains
[14] = tested on: Haemophilus Influenzae 351CB12; assay: Activity on gram-negative bacterial strains
[15] = tested on: Haemophilus Influenzae 351HT3; assay: Activity on gram-negative bacterial strains

MIC [1]: ≤ 0.02 µg/mL
MIC [2]: ≤ 0.02 µg/mL
MIC [3]: ≤ 0.02 µg/mL
MIC [4]: 0.08 µg/mL (≈ 0.101 µM)
MIC [5]: 0.08 µg/mL (≈ 0.101 µM)
MIC [6]: 0.15 µg/mL (≈ 0.188 µM)
MIC [7]: ≤ 0.02 µg/mL
MIC [8]: ≤ 0.02 µg/mL
MIC [9]: ≤ 0.02 µg/mL
MIC [10]: ≤ 0.02 µg/mL
MIC [11]: ≤ 0.02 µg/mL
Structure (SMILES): CCC1OC(=O)C(C)=CC(C)C(OC2OC(C)CC(N(C)C)C2O)C(C)(OC)CC(C)C(=O)C(C)C2N(CCCCn3cnc(-c4cccnc4)c3)C(=O)OC12C [Ex. 1, 2,3-didéhydro-11,12-didéoxy-3-de[(2,6-didéoxy-3-C-méthyl-3-O-méthyl-alpha-L-ribo-hexopyranosyl)oxy]6-O-méthyl-12,11-[oxycarbonyl[[4-[4-(3-pyridinyl)-1H-imidazol-1-yl]butyl]imino]]-érythromycine]
activité sur les souches bactériennes à gram^⊖ [12]: activité intéressante
activité sur les souches bactériennes à gram^⊖ [13]: activité intéressante
activité sur les souches bactériennes à gram^⊖ [14]: activité intéressante
activité sur les souches bactériennes à gram^⊖ [15]: activité intéressante
